Results reported in PubChem BioAssay AID248 (DTP/NCI, 2004).
Values joined by “and” are separate entries in the source; they are usually repeats but may differ in a detail not shown here. Equal entries are not always repeated. Toxic doses and inconclusive results are not listed. No stated cut-off is given here; in the data, active means T/C of 150% or more; inactive means T/C below 125%.

Test system: L1210 leukemia ip in BDF1 mice, survival T/C
Assay: NCI In Vivo Anticancer Drug Screen. Data for tumor model L1210 Leukemia (intraperitoneal) in B6D2F1 (BDF1) mice
Conditions: endpoint: mean survival time, higher = longer survival
Summary of the method: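 Read-out is survival time, reported as the treated-group measurement over the vehicle-control measurement.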

[1] = dose: 100.0 mg/kg/injection, schedule: Q01DX001 (ip), vehicle: carboxymethylcellulose (CMC)
[2] = dose: 200.0 mg/kg/injection, schedule: Q01DX001 (ip), vehicle: carboxymethylcellulose (CMC)
[3] = dose: 400.0 mg/kg/injection, schedule: Q01DX001 (ip), vehicle: carboxymethylcellulose (CMC)
[4] = dose: 100.0 mg/kg/injection, schedule: Q01DX009 (ip), vehicle: Klucel (hydroxypropylcellulose) (HPC)
[5] = dose: 100.0 mg/kg/injection, schedule: Q04DX002 (ip), vehicle: Klucel (hydroxypropylcellulose) (HPC)
[6] = dose: 100.0 mg/kg/injection, schedule: Q04DX003 (ip), vehicle: Klucel (hydroxypropylcellulose) (HPC)
[7] = dose: 200.0 mg/kg/injection, schedule: Q01DX009 (ip), vehicle: Klucel (hydroxypropylcellulose) (HPC)
[8] = dose: 200.0 mg/kg/injection, schedule: Q04DX002 (ip), vehicle: Klucel (hydroxypropylcellulose) (HPC)
[9] = dose: 200.0 mg/kg/injection, schedule: Q04DX003 (ip), vehicle: Klucel (hydroxypropylcellulose) (HPC)
[10] = dose: 400.0 mg/kg/injection, schedule: Q01DX009 (ip), vehicle: Klucel (hydroxypropylcellulose) (HPC)
[11] = dose: 400.0 mg/kg/injection, schedule: Q04DX002 (ip), vehicle: Klucel (hydroxypropylcellulose) (HPC)
[12] = dose: 400.0 mg/kg/injection, schedule: Q04DX003 (ip), vehicle: Klucel (hydroxypropylcellulose) (HPC)
[13] = dose: 12.5 mg/kg/injection, schedule: Q01DX009 (ip), vehicle: saline
[14] = dose: 25.0 mg/kg/injection, schedule: Q01DX009 (ip), vehicle: saline
[15] = dose: 75.0 mg/kg/injection, schedule: Q01DX001 (ip), vehicle: carboxymethylcellulose (CMC)
[16] = dose: 150.0 mg/kg/injection, schedule: Q01DX001 (ip), vehicle: carboxymethylcellulose (CMC)

Measured: T/C

Oc1ccc2ccccc2c1N=Nc1ccc(F)cc1
inactive: dose: 25.0 mg/kg/injection, schedule: Q01DX015 (ip), vehicle: saline 101 % of control | dose: 50.0 mg/kg/injection, schedule: Q01DX015 (ip), vehicle: saline 96 % of control | dose: 60.0 mg/kg/injection, schedule: Q01DX015 (ip), vehicle: carboxymethylcellulose (CMC) 109 % of control | [1] 92 % of control | dose: 100.0 mg/kg/injection, schedule: Q01DX009 (ip), vehicle: carboxymethylcellulose (CMC) 95 % of control | dose: 100.0 mg/kg/injection, schedule: Q01DX015 (ip), vehicle: saline 96 % of control | dose: 100.0 mg/kg/injection, schedule: Q04DX003 (ip), vehicle: carboxymethylcellulose (CMC) 114 % of control | dose: 120.0 mg/kg/injection, schedule: Q01DX015 (ip), vehicle: carboxymethylcellulose (CMC) 104 % of control | [2] 92 % of control | dose: 200.0 mg/kg/injection, schedule: Q01DX009 (ip), vehicle: carboxymethylcellulose (CMC) 95 % of control | dose: 200.0 mg/kg/injection, schedule: Q01DX015 (ip), vehicle: saline 101 % of control | dose: 200.0 mg/kg/injection, schedule: Q04DX003 (ip), vehicle: carboxymethylcellulose (CMC) 97 % of control | dose: 240.0 mg/kg/injection, schedule: Q01DX015 (ip), vehicle: carboxymethylcellulose (CMC) 95 % of control | [3] 89 % of control | dose: 400.0 mg/kg/injection, schedule: Q01DX015 (ip), vehicle: saline 101 % of control | dose: 400.0 mg/kg/injection, schedule: Q04DX003 (ip), vehicle: carboxymethylcellulose (CMC) 100 % of control | dose: 480.0 mg/kg/injection, schedule: Q01DX015 (ip), vehicle: carboxymethylcellulose (CMC) 96 % of control

CC1CCC2C(C)C3C(CC4C5CC=C6CC(OC7OC(CO)C(O)C(OC8OC(CO)C(O)C(O)C8O)C7OC7OC(C)C(O)C(O)C7O)CCC6(C)C5CCC43C)N2C1 (centres undefined)
inactive: dose: 12.5 mg/kg/injection, schedule: Q01DX015 (sc), vehicle: steriod suspending solution 101 % of control | dose: 25.0 mg/kg/injection, schedule: Q01DX015 (sc), vehicle: steriod suspending solution 98 % of control | dose: 50.0 mg/kg/injection, schedule: Q01DX015 (sc), vehicle: steriod suspending solution 95 % of control | dose: 100.0 mg/kg/injection, schedule: Q01DX001 (sc), vehicle: steriod suspending solution 100 % of control | dose: 100.0 mg/kg/injection, schedule: Q01DX015 (sc), vehicle: steriod suspending solution 101 % of control | dose: 200.0 mg/kg/injection, schedule: Q01DX001 (sc), vehicle: steriod suspending solution 105 % of control | dose: 400.0 mg/kg/injection, schedule: Q01DX001 (sc), vehicle: steriod suspending solution 103 % of control

O=C(O)c1ccccc1CBr
inactive: dose: 100.0 mg/kg/injection, schedule: Q01DX005 (ip), vehicle: Klucel (hydroxypropylcellulose) (HPC) 97 % of control | [4] 97 % of control | [5] 96 % of control | [6] 93 % of control | dose: 200.0 mg/kg/injection, schedule: Q01DX005 (ip), vehicle: Klucel (hydroxypropylcellulose) (HPC) 105 % of control | [7] 97 % of control | [8] 100 % of control | [9] 93 % of control | dose: 400.0 mg/kg/injection, schedule: Q01DX005 (ip), vehicle: Klucel (hydroxypropylcellulose) (HPC) 101 % of control | [10] 97 % of control | [11] 93 % of control | [12] 105 % of control

C1CN2CN1CN1CCN(C1)C2
inactive: [13] 101 % of control | [14] 108 % of control | dose: 50.0 mg/kg/injection, schedule: Q01DX009 (ip), vehicle: saline 114 % of control

Cc1c(NC(=O)Nc2cccc(C(F)(F)F)c2)c(=O)n(-c2ccccc2)n1C
inactive: dose: 25.0 mg/kg/injection, schedule: Q01DX009 (ip), vehicle: Klucel (hydroxypropylcellulose) (HPC) 88 % of control | dose: 50.0 mg/kg/injection, schedule: Q01DX009 (ip), vehicle: Klucel (hydroxypropylcellulose) (HPC) 86 % of control | [7] 96 % of control

O=C1c2cscc2Cc2sccc21
inactive: dose: 100.0 mg/kg/injection, schedule: Q01DX001 (ip), vehicle: saline with Tween-80 95 % of control | dose: 200.0 mg/kg/injection, schedule: Q01DX001 (ip), vehicle: saline with Tween-80 92 % of control | dose: 400.0 mg/kg/injection, schedule: Q01DX001 (ip), vehicle: saline with Tween-80 88 % of control

O=C1c2ccc([N+](=O)[O-])cc2-n2cccc21
inactive: [6] 95 % of control | [9] 104 % of control | [12] 98 % of control

C=C(C(=O)OC)C(C(=O)OC)=C(N1CCCCC1)N1CCCCC1
inactive: dose: 100.0 mg/kg/injection, schedule: Q04DX002 (ip), vehicle: saline with Tween-80 95 % of control | dose: 200.0 mg/kg/injection, schedule: Q04DX002 (ip), vehicle: saline with Tween-80 95 % of control

O=C(O)/C=C/c1cc2c(cc1[N+](=O)[O-])OCO2
inactive: [4] 98 % of control | [6] 86 % of control | [7] 93 % of control | [9] 95 % of control | [10] 88 % of control | [12] 100 % of control

S=c1[nH]ccn1-c1ccccc1
inactive: [1] 103 % of control | [2] 110 % of control | [3] 101 % of control

NOCc1c(F)c(F)c(F)c(F)c1F
inactive: dose: 100.0 mg/kg/injection, schedule: Q04DX003 (ip), vehicle: saline sonified 93 % of control | dose: 200.0 mg/kg/injection, schedule: Q04DX003 (ip), vehicle: saline sonified 104 % of control

CN(C)Cc1c(C(O)(c2ccccc2)c2ccccc2)cc2ccccc2c1Cl
inactive: dose: 50.0 mg/kg/injection, schedule: Q01DX001 (ip), vehicle: carboxymethylcellulose (CMC) 94 % of control | [1] 94 % of control | [2] 102 % of control | [3] 96 % of control

CCN(CC)CCC(O)c1ccc2c(c1)[nH]c1ccccc12 (centres undefined)
inactive: [15] 97 % of control | [16] 103 % of control

CCOC(=O)C(C(C)=O)C(c1ccc(N(C)C)cc1)C(C(C)=O)C(=O)OCC (centres undefined)
inactive: dose: 25.6 mg/kg/injection, schedule: Q04DX002 (ip), vehicle: saline with Tween-80 97 % of control | dose: 64.0 mg/kg/injection, schedule: Q04DX002 (ip), vehicle: saline with Tween-80 93 % of control | dose: 100.0 mg/kg/injection, schedule: Q04DX003 (ip), vehicle: saline with Tween-80 89 % of control | dose: 160.0 mg/kg/injection, schedule: Q04DX002 (ip), vehicle: saline with Tween-80 93 % of control | dose: 200.0 mg/kg/injection, schedule: Q04DX003 (ip), vehicle: saline with Tween-80 92 % of control | dose: 400.0 mg/kg/injection, schedule: Q04DX002 (ip), vehicle: saline with Tween-80 89 % of control | dose: 400.0 mg/kg/injection, schedule: Q04DX003 (ip), vehicle: saline with Tween-80 95 % of control

COc1ccn(C)c(=O)n1
inactive: [13] 112 % of control | dose: 12.5 mg/kg/injection, schedule: Q04DX003 (ip), vehicle: saline 110 % of control | [14] 93 % of control | dose: 25.0 mg/kg/injection, schedule: Q04DX003 (ip), vehicle: saline 91 % of control | dose: 50.0 mg/kg/injection, schedule: Q04DX003 (ip), vehicle: saline 96 % of control

CCOc1ccc(N)c(O)c1
inactive: [15] 98 % of control and 102 % of control | [16] 93 % of control

O=C1OC(c2cccc(Cl)c2)=N/C1=C\c1cccc([N+](=O)[O-])c1
inactive: [5] 103 % of control | [8] 100 % of control | [11] 103 % of control

O=C(COc1cccc(Cl)c1)NCc1ccc(NC(=O)CBr)cc1
inactive: dose: 25.0 mg/kg/injection, schedule: Q01DX001 (ip), vehicle: gum acacia 94 % of control | dose: 50.0 mg/kg/injection, schedule: Q01DX001 (ip), vehicle: gum acacia 96 % of control | dose: 100.0 mg/kg/injection, schedule: Q01DX001 (ip), vehicle: gum acacia 98 % of control | dose: 200.0 mg/kg/injection, schedule: Q01DX001 (ip), vehicle: gum acacia 90 % of control | dose: 400.0 mg/kg/injection, schedule: Q01DX001 (ip), vehicle: gum acacia 90 % of control
